# Measured values from patent US20090298752A1, “APLIDINE TREATMENT OF CANCERS” (PHARMA MAR, S.A., priority 1999, published 2009).
# Values joined by “and” are separate entries in the source; they are usually repeats but may differ in a detail not shown here. Identical values can stand only once. “Also recorded” adds a separate entry of the source.
# Key:
# HIF-1 = target: T1, HIF-1 (Homo sapiens, UniProt P27540+Q16665); assay: gel retardation assay, transcription factor binding; type: biochemical
# T1 construct: endogenous in cells; host or cells: nuclear extracts
# T1 sequence (Q16665 whole entry): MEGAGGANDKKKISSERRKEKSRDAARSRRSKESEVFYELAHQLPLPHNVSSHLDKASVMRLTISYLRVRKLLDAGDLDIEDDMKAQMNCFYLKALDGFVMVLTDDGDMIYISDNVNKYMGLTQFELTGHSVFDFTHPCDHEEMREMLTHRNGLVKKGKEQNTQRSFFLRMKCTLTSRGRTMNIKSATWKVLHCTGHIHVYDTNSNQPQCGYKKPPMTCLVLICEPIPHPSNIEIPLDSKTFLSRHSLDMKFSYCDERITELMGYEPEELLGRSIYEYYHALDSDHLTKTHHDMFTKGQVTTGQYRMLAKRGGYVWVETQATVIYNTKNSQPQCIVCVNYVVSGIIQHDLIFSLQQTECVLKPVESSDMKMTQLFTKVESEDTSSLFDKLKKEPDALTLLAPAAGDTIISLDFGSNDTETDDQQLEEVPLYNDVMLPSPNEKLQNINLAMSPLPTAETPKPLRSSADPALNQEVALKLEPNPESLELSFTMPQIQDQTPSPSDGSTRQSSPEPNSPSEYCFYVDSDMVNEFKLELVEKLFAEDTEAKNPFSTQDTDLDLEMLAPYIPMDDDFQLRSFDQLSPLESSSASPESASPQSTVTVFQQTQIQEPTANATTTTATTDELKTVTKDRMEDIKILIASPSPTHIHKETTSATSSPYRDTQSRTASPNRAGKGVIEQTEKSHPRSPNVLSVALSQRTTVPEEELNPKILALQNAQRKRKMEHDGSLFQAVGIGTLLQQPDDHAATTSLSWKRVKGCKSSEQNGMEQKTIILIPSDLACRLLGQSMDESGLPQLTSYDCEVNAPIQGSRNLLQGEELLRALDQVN
# T1 sequence (P27540 whole entry): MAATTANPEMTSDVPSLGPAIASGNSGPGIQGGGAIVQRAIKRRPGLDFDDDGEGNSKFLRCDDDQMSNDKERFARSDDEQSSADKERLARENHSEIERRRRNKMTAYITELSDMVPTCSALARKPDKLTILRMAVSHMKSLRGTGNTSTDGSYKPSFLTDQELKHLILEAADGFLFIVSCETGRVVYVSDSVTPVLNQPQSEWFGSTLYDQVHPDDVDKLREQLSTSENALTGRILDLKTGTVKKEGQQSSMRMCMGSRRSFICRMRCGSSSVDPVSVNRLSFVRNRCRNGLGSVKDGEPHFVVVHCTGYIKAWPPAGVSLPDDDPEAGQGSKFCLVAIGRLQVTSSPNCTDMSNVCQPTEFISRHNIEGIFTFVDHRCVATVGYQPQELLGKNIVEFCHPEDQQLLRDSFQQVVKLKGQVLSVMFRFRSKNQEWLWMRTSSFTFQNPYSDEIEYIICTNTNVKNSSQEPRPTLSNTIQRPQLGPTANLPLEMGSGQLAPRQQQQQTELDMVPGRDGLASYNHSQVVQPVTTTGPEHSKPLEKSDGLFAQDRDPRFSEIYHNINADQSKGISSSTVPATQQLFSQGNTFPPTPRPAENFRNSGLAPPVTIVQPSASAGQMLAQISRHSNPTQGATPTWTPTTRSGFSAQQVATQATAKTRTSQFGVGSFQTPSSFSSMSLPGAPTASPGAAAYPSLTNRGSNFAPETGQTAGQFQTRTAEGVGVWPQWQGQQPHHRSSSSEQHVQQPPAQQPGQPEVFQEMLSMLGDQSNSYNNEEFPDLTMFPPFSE
# Description: Nuclear extracts were incubated with different aplidine concentrations and labelled oligonucleotides for 60 min. Using gel retardation assay the binding of HIF-1 or AP-1 has been monitored.
# Nuclear extracts obtained from cells treated with different aplidine concentrations were incubated with labelled oligonucleotides for 60 min. Using gel retardation assay the binding of HIF-1 has been monitored.
# [1] = Clinical pharmacokinetics across phase I schedules; type: in vivo, human; details: plasma PK, initial results
# Description: […] intravenous schedules are under phase I evaluation: weekly 24 h infusion, biweekly 24 h infusion and 5 consecutive days 1 h infusion every 3 weeks. APL blood concentrations are analysed by liquid chromatography-tandem mass spectrometry. […] An open 2-compartment model fits appropriately most profiles after 24 h infusion. For 1 h infusions a 3-compartment model provides a better fit in most cases. Obtained plasma levels are known to be active in vitro. Evaluation of additional patients, and a comparison of blood cells and plasma PK is ongoing.
# [2] = Phase I, 24 h infusion weekly x3 q4wk: toxicity and pharmacokinetics; type: in vivo, human
# Description: A phase I trial was performed using 24 hour infusion weekly×3 followed by 1 wk rest. 32 patients (median age 58 yrs, median ECOG 1) with advanced, previously treated solid tumours have been treated. They have received 64 courses (median/pt: 2 (1-6)) across 8 dose levels: 133 (3 pts), 266 (3 pts), 532 (3 pts), 1000 (3 pts), 2000 (3 pts), 3000 (3 pts), 4500 (4 pts) and 3750 mcg/m^2/wk (10 pts). 2 out of 3 evaluable patients had DLT at 4500 mcg/m^2/wk: grade (G) 4 reversible neuromuscular toxicity (biopsy prevent type II muscular atrophy) and G4 CK increase (1 pt), and transient G3 transaminitis (1 pt). Other toxicities included G 1-2 malaise (most patients treated at ≧3000 mcg/m^2/wk), muscle cramps, G 1-2 emesis (responsive to antiemetics) and injection site reaction (very common and concentration-dependent). All patients have been sampled for PK analysis by a LC/MS/MS method. Pharmacokinetics are linear and the profiles fit a 2 compartment open model. […] Maintained plasma levels >1 ng/ml (active in vitro) were obtained at doses ≧3000 mcg/m^2. […] Four additional patients had minor responses or stable disease for >4 months. […] The recommended dose for future trials, 3750 mcg/m^2/wk×3, administered through a central vein catheter, is feasible and associated with mild toxicity.
# Plasma aplidine concentrations were determined by liquid chromatography/tandem mass spectography with a limit of quantitation of 0.25 ng/mL and a broad linear range up to 16.00 ng/mL
# A total of 15 samples were drawn up to 24 hours after the end of infusion
# VEGF promoter = VEGF promoter luciferase reporter in MOLT-4 cells; type: cell-based, human; details: luciferase after 24 hours vs renilla
# Description: Cells were transfected with the VEGF promoter (spanning the first 1000 bases upstream the starting site linked to luciferase reporter gene and with a control plasmid containing the renilla reporter gene. Cells were then treated with different concentrations of aplidine and luciferase activity was measured after 24 hours and compared to renilla activity.
# Gastric MRI-H254 = assay: sc xenograft, gastric tumour, mouse; type: in vivo; details: for Activity (% T/C.): xenograft, mouse
# Description: Different model systems were evaluated to provide the basis for further clinical work. Selective antitumour activities were seen against two histologically different solid tumours: human gastric and prostate carcinomas. Potent in vitro activity to primary gastric tumour specimens or Hs746T gastric tumour cells is evident with IC30 values of 146 and 450 pM, respectively. […] activities were evaluated in nude rodents using sc implanted tumour fragments or hollow fibres (HF) containing tumour cells.
# Follow-up studies necessitated using rats for iv infusions. With this variation, a 24 hr iv infusion schedule produced similar activities against HF gastric (20%) and HF prostate (31%) tumour cells. Cytotoxicity was also found using a 5 day iv infusion schedule against HF prostate tumour cells (33%).
# [3] = DL V, 2000 mcg/m^2/wk, 3 patients
# [4] = DL VI, 3000 mcg/m^2/wk, 3 patients
# [5] = DL VII (MTD), 4500 mcg/m^2/wk, 4 patients
# [6] = DL VIII (RD), 3750 mcg/m^2/wk, 13 patients
substance,measurement,setting,value
aplidine,binding of HIF-1 to consensus DNA sequence,HIF-1; nuclear extracts from cells treated with aplidine,does not block the binding
same,binding of HIF-1 to consensus DNA sequence,"HIF-1; nuclear extracts incubated with aplidine, 60 min",does not block the binding; also recorded: did not change the ability
same,elimination half lives,[1],10 to 24 h
same,volume of distribution,[1],> 200 L/m^2
same,evaluable patients with DLT,[2]; 4500 mcg/m^2/wk,2 out of 3
same,Recommended Dose,[2]; 24 h infusion weekly x3 q4wk,3750 μg/m^2/wk×3
same,Inj. Site reaction G2 (worst toxicity per patient),"[2]; DL II, 266 mcg/m^2/wk, 3 patients",1
same,Asthenia G2 (worst toxicity per patient),"[2]; DL III, 532 mcg/m^2/wk, 3 patients",1
same,Inj. Site reaction G2 (worst toxicity per patient),"[2]; DL IV, 1000 mcg/m^2/wk, 3 patients",1
same,Inj. Site reaction G2 (worst toxicity per patient),[2]; [3],1
same,Nausea G2 (worst toxicity per patient),[2]; [3],1
same,Asthenia G2 (worst toxicity per patient),[2]; [4],1
same,Asthenia G3 (worst toxicity per patient),[2]; [4],1
same,Inj. Site reaction G2 (worst toxicity per patient),[2]; [4],1
same,Nausea G3 (worst toxicity per patient),[2]; [4],1
same,Asthenia G2 (worst toxicity per patient),[2]; [5],1
same,CPK elevation G4 (worst toxicity per patient),[2]; [5],1
same,Inj. Site reaction G2 (worst toxicity per patient),[2]; [5],1
same,Myositis G3 (worst toxicity per patient),[2]; [5],1
same,Transaminitis G3 (worst toxicity per patient),[2]; [5],1
same,Asthenia G2 (worst toxicity per patient),[2]; [6],3
same,Hypersensitivity G3 (worst toxicity per patient),[2]; [6],1
same,Inj. Site reaction G2 (worst toxicity per patient),[2]; [6],3
same,Nausea G2 (worst toxicity per patient),[2]; [6],2
same,Transaminitis G3 (worst toxicity per patient),[2]; [6],2
same,Transaminitis G4 (worst toxicity per patient),[2]; [6],1
same,plasma levels,[2]; DLs 1000 and 2000 mcg/m^2/w,~1 ng/mL
same,dose limiting toxicities (DLTs),"[2]; Example 3: 16 patients, 133-3000 mcg/m^2/wk x3",No dose limiting toxicities
same,Maximum Tolerated Dose,[2]; Example 4,4500 μg/m^2/wk×3
same,elimination t ½,"[2]; Example 4, preliminary data",10 to 24 h
same,plasma levels,"[2]; Example 4, preliminary data",> 1 ng/mL
same,MTD,[2]; Example 11,4500 mcg/m^2/wk
same,recommended dose for future trials,"[2]; Example 11, central vein catheter",3750 mcg/m^2/wk×3
same,MTD,[2]; Example 12,4500 mcg/m^2/week×3
same,haematological toxicity,[2]; Example 12,No haematological toxicity
same,recommended dose for future trials,[2]; Example 12,3750 mcg/m^2/week×3
same,maintained plasma levels,[2]; doses ≧3000 mcg/m^2,> 1 ng/mL
same,Blood cell accumulation as compared to plasma,[2]; in vivo,2-8 fold
same,dose from which potentially active plasma levels are reached,[2]; in vivo,≥ 2000 mcg/m^2
same,coefficient of variation of clearance (Cl),[2]; interpatient variability,45%
same,Vss,[2]; median (quartiles),611 L and 611 (434-733) L
same,clearance (Cl),[2]; median (quartiles),0.47 L/min and 0.47 (0.40-0.56) L/min
same,elimination t ½,[2]; median (quartiles),18.8 h and 18.8 (15.3-25.4) h
same,"activity of transfected VEGF promoter, in words",VEGF promoter,dose not decrease the activity of VEGF promoter; also recorded: did not decrease the transcription of VEGF
same,"Optimal activities, xenografted gastric tumours","Gastric MRI-H254; ip administration, range over regimens",17-20%
same,Activity (% T/C.),"Gastric MRI-H254; q4dx3.ip, 1.25 mg/kg",18% T/C
same,Activity (% T/C.),"Gastric MRI-H254; qd9.ip, 1.05 mg/kg",17% T/C
same,Activity (% T/C.),"Gastric MRI-H254; qd9.ip, 2.1 mg/kg",19% T/C
